The text below walks through data of article PMC11091967, “Silicon-Rhodamine Functionalized Evocalcet Probes Potently and Selectively Label Calcium Sensing Receptors In Vitro, In Vivo, and Ex Vivo” (ACS Pharmacology & Translational Science, 2024).

One series addresses T1, human CaSR (Homo sapiens, UniProt P41180).
T1 construct: host or cells: CCL39 hamster lung fibroblasts stably transfected (HCAR), Geneticin selection
T1 sequence (P41180 20-1078): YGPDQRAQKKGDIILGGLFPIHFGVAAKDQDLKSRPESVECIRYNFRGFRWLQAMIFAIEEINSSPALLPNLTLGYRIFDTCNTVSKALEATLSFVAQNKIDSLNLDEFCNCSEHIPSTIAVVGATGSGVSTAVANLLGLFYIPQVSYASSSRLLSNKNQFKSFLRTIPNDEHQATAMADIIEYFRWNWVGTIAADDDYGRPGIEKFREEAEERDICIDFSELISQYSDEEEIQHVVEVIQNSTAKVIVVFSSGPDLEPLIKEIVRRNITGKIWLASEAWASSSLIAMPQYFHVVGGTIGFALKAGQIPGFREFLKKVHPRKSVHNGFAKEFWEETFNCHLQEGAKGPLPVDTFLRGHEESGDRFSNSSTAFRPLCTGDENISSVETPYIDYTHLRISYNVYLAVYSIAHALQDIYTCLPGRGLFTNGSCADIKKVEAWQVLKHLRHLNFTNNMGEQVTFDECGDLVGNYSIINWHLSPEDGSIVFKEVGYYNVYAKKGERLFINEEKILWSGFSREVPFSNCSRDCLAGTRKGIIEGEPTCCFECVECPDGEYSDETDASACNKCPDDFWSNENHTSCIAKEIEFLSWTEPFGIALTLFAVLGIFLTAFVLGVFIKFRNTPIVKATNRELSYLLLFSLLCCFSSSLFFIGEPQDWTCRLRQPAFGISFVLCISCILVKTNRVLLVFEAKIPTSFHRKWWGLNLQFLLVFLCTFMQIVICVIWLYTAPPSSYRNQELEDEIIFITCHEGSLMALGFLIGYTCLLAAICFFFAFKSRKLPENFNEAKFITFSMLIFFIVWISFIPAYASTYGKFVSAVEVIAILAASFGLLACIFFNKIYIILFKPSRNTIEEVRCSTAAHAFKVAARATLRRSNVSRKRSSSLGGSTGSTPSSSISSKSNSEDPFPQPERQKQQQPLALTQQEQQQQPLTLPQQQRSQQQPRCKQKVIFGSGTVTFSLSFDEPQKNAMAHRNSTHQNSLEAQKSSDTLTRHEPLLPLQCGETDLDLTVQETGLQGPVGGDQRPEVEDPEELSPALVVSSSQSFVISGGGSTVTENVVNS
The series is described as follows: In vitro labeling of CaSR expressing (HCAR) and control (CCL39) cells, fluorescence microscopy. As to conditions: for fold increase in skewness of pixel intensity distribution, CaSR+ (HCAR) vs CaSR- (CCL39) cells: 500 nM probe; for fold mean fluorescence difference between CaSR+ and CaSR- cells: 72 h incubation. Type of series: cell-based. The method, then:
HCAR (CaSR+) and CCL39 (CaSR−) cells were kindly obtained from Novartis AG (Basel, Switzerland) and validated in house. The cells were seeded into μ-slide 18 well plates (ibidi, 81816) at a density of 5000 cells per well and were incubated for 24 h under standard culturing conditions. As our preliminary data indicated considerable nonspecific labeling of dying cells and cellular debris, a viability staining was introduced to ensure probe specificity.[29] Thus, after washing twice with HBSS, cells were incubated in 10 μM Calcein AM solution containing 0.02% Pluronic F-127 and 0.1% DMSO for 45 min at 37 °C. The solution was then removed and washed twice in HBSS before the addition of the HBSS solution containing the SiR probes. All probe solutions were protected from light exposure and contained 0.5% DMSO and various concentrations of BSA depending on the experiment. Incubation with the fluorescent probes was 20 min long, after which a single washing step was introduced with HBSS before imaging. Images of the cells (Calcein: FITC channel, SiR: Cy5 channel) were acquired with a Nikon Eclipse TI2 inverted wide-field fluorescence microscope using a 60× magnification oil immersion objective (Nikon CFI Plan Fluor, 60×, NA = 0.85). For each well, a minimum of 3 images were acquired. For each image, cells were segmented to generate labels on the FITC channel postacquisition using the deep neural network-based Cellpose package in Python 3.9 (model_type: cyto2, diameter: 200, flow_threshold: 0.4).[30] To normalize pixel intensity values across images, for each image, a background value was calculated by taking the average pixel intensity value of the pixels in which no cellular label was present and were negative for the EvoSiR label (triangle thresholding used). For each cell, the skewness of the value distribution and the mean of the Cy5 pixel intensities were calculated. The procedure for evaluating the long-term labeling (72 h) of EvoSiR probes on CCL39 and HCAR cells was similar, with the following modifications: images were retrieved using 10× magnification air objectives (Nikon CFI Plan Fluor 10×, NA = 0.3), in the neural network model, the diameter parameter was set to 30, and only the mean Cy5 pixel intensities per cell object were retrieved.

Series [1] concerns the target T2, bovine serum albumin (BSA) (Bos taurus, UniProt P02769).
T2 construct: purchased Sigma A7906
The series can be described thus: Spectrofluorometric analysis of fluorogenicity upon BSA binding. Type of series: physicochemical. As to conditions: for increase in absolute fluorescence upon addition of 1% BSA: 1% BSA compared to PBS. The method, then:
Spectrofluorometric measurements were carried out by using the Agilent Cary Eclipse instrument. The voltage of the photomultiplier tube (PMT) was set to 600 for EvoSiR4 and EvoSiR6, and for 500 for SiR (4). Fluorescence of the probes was measured at concentrations ranging from 30 to 3000 nM in PBS containing various amounts of bovine serum albumin (BSA) (Sigma, A7906). Quenching experiments for the calculation of BSA binding were performed by adding a 1:1 molar ratio of tannic acid dissolved in ddH2O (Sigma, 403040) to the solution prior to measuring fluorescence.

Entries after “also recorded” stand apart in the source; their conditions may differ.

T2 sequence (P02769 25-607): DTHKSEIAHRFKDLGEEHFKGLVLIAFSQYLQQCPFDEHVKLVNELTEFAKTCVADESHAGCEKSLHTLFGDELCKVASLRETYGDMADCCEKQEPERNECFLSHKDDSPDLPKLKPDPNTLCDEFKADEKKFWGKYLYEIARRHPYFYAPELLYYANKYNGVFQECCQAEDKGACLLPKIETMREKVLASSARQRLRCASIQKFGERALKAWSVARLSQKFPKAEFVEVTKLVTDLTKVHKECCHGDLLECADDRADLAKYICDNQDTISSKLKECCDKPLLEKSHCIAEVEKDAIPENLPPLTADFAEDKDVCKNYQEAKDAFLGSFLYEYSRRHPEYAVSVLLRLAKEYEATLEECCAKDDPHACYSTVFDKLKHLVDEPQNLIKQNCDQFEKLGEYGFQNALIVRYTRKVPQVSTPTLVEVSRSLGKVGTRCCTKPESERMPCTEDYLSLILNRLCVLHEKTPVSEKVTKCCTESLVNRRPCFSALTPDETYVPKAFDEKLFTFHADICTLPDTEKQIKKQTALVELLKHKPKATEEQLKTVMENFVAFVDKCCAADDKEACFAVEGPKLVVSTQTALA

`Cc1cc(C(=O)NCCCCNC(=O)Cc2ccc(N3CC[C@H](N[C@H](C)c4cccc5ccccc45)C3)cc2)ccc1C1=C2C=CC(=[N+](C)C)C=C2[Si](C)(C)c2cc(N(C)C)ccc21` [EvoSiR4]: the “fold increase in skewness of pixel intensity distribution, CaSR+ (HCAR) vs CaSR- (CCL39) cells” value at human CaSR (0.1% BSA) stood at 3.7 fold. For the same molecule, the “concentration above which skewness significantly increased for HCAR compared to CCL39” value on human CaSR (1% BSA) is on record as “above 2500 nM”; on human CaSR (no BSA and 0.1% BSA) it was “above 500 nM”. Further, the “fold mean fluorescence difference between CaSR+ and CaSR- cells” value on human CaSR (50 nM) is 1.3 fold; on human CaSR (200 nM), 2.5 fold. For the same molecule, the “concentration at which skewness values saturate” value on human CaSR (HCAR (CaSR+) cells, 0.1% BSA) is 500 nM. Also, the “fold increased fluorescence in 0.1% BSA compared to PBS” value in series [1] amounted to 4 fold. In series [1], the “increase in absolute fluorescence upon addition of 1% BSA” value came to 400%.
In the case of `Cc1cc(C(=O)NCCCCCCNC(=O)Cc2ccc(N3CC[C@H](N[C@H](C)c4cccc5ccccc45)C3)cc2)ccc1C1=C2C=CC(=[N+](C)C)C=C2[Si](C)(C)c2cc(N(C)C)ccc21` [EvoSiR6], the “fold increase in skewness of pixel intensity distribution, CaSR+ (HCAR) vs CaSR- (CCL39) cells” value on human CaSR (0.1% BSA) turned out to be 2.3 fold. In series [1], the “fold increased fluorescence in 0.1% BSA compared to PBS” value is 1.8 fold and the “increase in absolute fluorescence upon addition of 1% BSA” value worked out at 250%.
For `C[C@@H](N[C@H]1CCN(c2ccc(CC(=O)O)cc2)C1)c1cccc2ccccc12` [evocalcet], on human CaSR (CaSR+ cells preincubated with 0–500 nM evocalcet in 0.1% BSA), the “reduction in skewness of pixel intensity distribution of EvoSiR4 labeling by competition” value is reported as 55%. Besides, the “effect of preincubating the BSA solution with evocalcet on EvoSiR4 fluorescence” value in series [1] (evocalcet 30–6000 nM, 350 nM EvoSiR4) is given as “No significant decrease; also recorded: no significant difference”.
